Results reported in patent US7638531B2, “Phenoxypiperidines and analogs thereof useful as histamine H3 antagonists” (Schering Corporation, priority 2005, dated 2009).

Experiments:
mice fed a high-fat diet = test: Diet-induced obesity in mice; type: in vivo; conditions: high-fat diet days 0 to 4, 10 mg/kg by gavage once daily for four days, versus vehicle control
Protocol: Lean mice (male, approx. 5 weeks of age, purchased from The Jackson Laboratory, Bar Harbor, Me.) were maintained in individual cages at 22° C. on a 12:12 hr light/dark cycle. The “treated” mice (N=12) were administered a Thiazole Derivative (10 mg/kg) by gavage once daily for four consecutive days. Control mice (N=12) were administered vehicle only, once daily for four days. Both control and treated mice were fed a high-fat diet from days 0 to 4 and body weight and food intake was monitored daily. The percent inhibition for weight gain and food intake was calculated by comparing the increase in weight gain and food intake in the treated mice to the increase in weight gain and food intake in the control mice.

[1] = target: T1, recombinant human H3 receptor, expressed in HEK-293 cells (Homo sapiens, UniProt Q9Y5N1); test: H3-receptor binding assay, recombinant human receptor; conditions: recombinant human receptor in HEK-293 membranes; 3 nM [3H]R-α-methyl histamine or [3H]Nα-methyl histamine, 30° C., 30 min
T1 construct: expressed in transfected cells; host or cells: HEK-293 (human embryonic kidney) cells
Protocol: (§1) The source of the H3 receptors in this experiment was guinea pig brain. Alternatively, the source of H3 receptors was recombinant human receptor, expressed in HEK-293 (human embryonic kidney) cells.
(§2) All compounds to be tested were dissolved in DMSO and then diluted into the binding buffer (50 mM Tris, pH 7.5) such that the final concentration was 2 μg/ml with 0.1% DMSO. Membranes were then added (400 μg of protein, 5 μg in the case of recombinant human receptor) to the reaction tubes. The reaction was started by the addition of 3 nM [^3H]R-α-methyl histamine (8.8 Ci/mmol) or 3 nM [^3H]N^α-methyl histamine (80 Ci/mmol) and continued under incubation at 30° C. for 30 min. Bound ligand was separated from unbound ligand by filtration, and the amount of radioactive ligand bound to the membranes was quantitated by liquid scintillation spectrometry. All incubations were performed in duplicate and the standard error was always less than 10%. Compounds that inhibited more than 70% of the specific binding of radioactive ligand to the receptor were serially diluted to determine a Ki (nM).

[2] = target: T2, H3 receptors, guinea pig brain (Cavia porcellus, UniProt Q9JI35); test: H3-receptor binding assay, guinea pig brain; conditions: guinea pig brain membranes; 3 nM [3H]R-α-methyl histamine or [3H]Nα-methyl histamine, 30° C., 30 min
T2 construct: The source of the H3 receptors in this experiment was guinea pig brain; from tissue; host or cells: guinea pig brain membranes
Protocol: as §1
The animals weighed 400-600 g. The brain tissue was homogenized with a solution of 50 mM Tris, pH 7.5. The final concentration of tissue in the homogenization buffer was 10% w/v. The homogenates were centrifuged at 1,000×g for 10 min. in order to remove clumps of tissue and debris. The resulting supernatants were then centrifuged at 50,000×g for 20 min. in order to sediment the membranes, which were next washed three times in homogenization buffer (50,000×g for 20 min. each). The membranes were frozen and stored at −70° C. until needed.
as §2, with “All incubations were performed in duplicate and the standard error was always less than 10%. Compounds that inhibited more than 70% of the specific binding of radioactive ligand to the receptor were serially diluted to determine a Ki (nM).” left out

T2 sequence (Q9JI35 whole entry): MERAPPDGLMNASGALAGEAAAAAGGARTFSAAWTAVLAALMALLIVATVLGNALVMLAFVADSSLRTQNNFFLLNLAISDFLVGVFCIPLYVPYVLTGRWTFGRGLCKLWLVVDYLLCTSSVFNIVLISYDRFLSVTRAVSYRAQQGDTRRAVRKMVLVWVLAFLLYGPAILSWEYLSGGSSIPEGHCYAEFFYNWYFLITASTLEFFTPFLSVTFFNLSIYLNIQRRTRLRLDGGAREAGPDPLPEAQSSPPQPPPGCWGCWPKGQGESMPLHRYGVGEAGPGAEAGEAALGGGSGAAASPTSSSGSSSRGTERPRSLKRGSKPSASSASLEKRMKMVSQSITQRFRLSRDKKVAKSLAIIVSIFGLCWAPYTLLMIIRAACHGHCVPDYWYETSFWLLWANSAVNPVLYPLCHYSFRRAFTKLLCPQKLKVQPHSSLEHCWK
T1 sequence (Q9Y5N1 whole entry): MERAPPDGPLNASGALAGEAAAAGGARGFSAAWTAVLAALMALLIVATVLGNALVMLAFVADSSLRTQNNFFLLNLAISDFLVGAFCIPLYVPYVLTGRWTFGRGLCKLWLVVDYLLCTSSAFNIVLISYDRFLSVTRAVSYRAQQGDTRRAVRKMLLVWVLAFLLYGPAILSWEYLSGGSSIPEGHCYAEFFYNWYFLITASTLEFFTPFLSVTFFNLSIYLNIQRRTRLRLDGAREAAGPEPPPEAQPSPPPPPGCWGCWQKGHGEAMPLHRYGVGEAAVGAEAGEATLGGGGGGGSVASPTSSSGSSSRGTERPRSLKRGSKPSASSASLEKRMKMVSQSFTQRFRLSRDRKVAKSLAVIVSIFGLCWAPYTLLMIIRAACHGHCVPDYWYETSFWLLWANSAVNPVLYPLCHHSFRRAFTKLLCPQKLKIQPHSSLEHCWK

SMILES | Food intake Inhibition (%) (mice fed a high-fat diet) | Weight Gain Inhibition (%) (mice fed a high-fat diet) | Ki [1] | Ki [2]
Nc1cc(CN2CCC(Oc3ccc(-n4c(C(F)(F)C(F)(F)F)nc5cccnc54)cc3)CC2)ccn1 [Compound 36A] | 12.7% | 58.0% |  | 
CN1CCN(c2ccc(OC3CCN(Cc4ccnc(N)c4)CC3)cc2)CC1 [Compound 22A] | 11.2% | 42.4% |  | 
Nc1cc(CN2CCC(Oc3ccc(-n4c(-c5ccccn5)nc5cccnc54)cc3)CC2)ccn1 [Compound 4A] | 15.9% | 74.1% |  | 
Nc1cc(CN2CCC(Oc3ccc(-n4c(-c5ncccc5F)nc5cccnc54)cc3)CC2)ccn1 [Compound 69A] |  |  | 0.6 nM | 18 nM
